Experimental data: patent US20250206758A1, “SUBSTITUTED BRIDGED RING INHIBITOR, PREPARATION METHOD THEREFOR AND APPLICATION THEREOF” (SUZHOU ZELGEN BIOPHARMACEUTICALS CO., LTD., priority 2022, published 2025)
Read-outs that look alike come from different tables or passages of the source.

Key:
AsPC-1 = assay: Cell proliferation inhibition, AsPC-1 (CellTiter-Glo 3D, 7 days); type: cell-based; details: AsPC-1, 7 days
Experimental: (§1) • (a) Resuscitating cells in T75 cell culture flask: • (b) When the cell confluence reaches 80-90%, subculturing the cells.
(§2) The diluted test compound was added to a 384-well cell culture plate with a nanoliter pipetting system, and duplicate wells were set up. An equal volume of culture medium was added to the positive control group; and an equal volume of DMSO was added to the negative control group, then centrifugation was conducted at 1000 rpm for 1 min at room temperature.
(§3) Cells were inoculated into a) 384-well culture plate, with an equal volume of cells added to the negative control group, and only an equal volume of culture medium added to the positive control group. The plate was centrifuged at 1000 rpm for 1 min at room temperature, and the final DMSO concentration of the compound was 0.5% at last. The plate was placed in a 37° C., 5% CO2 constant temperature incubator for 7 days.
(§4) 20 μL/well of CellTiter-Glo® 3D to b) was added to 384-well cell culture plate, and the plate was shook at 320 rpm for 20 min in the dark, and incubated at room temperature in the dark for 2 hrs.
(§5) The luminescence value was read using an Envision multi-functional microplate reader.
(§6) The inhibition rate (IR) of the test compound was calculated using the following formula: IR (%)=(1−(RLU compound−RLU blank control)/(RLU meidum control−RLU blank control))*100%. The inhibition rates of different concentrations of compounds were calculated in Excel, and then the inhibition curves were plotted and the related parameters (including the minimum inhibition rate, maximum inhibition rate and IC50) were calculated using GraphPad Prism software.

AGS = assay: Cell proliferation inhibition, AGS (CellTiter-Glo 3D, 7 days); type: cell-based; details: Homo sapiens, 168 h
Experimental: as §1, §2, §3, §4, §5, §6

GP2D = assay: Cell proliferation inhibition, GP2D (CellTiter-Glo 3D, 7 days); type: cell-based
Experimental: as §1, §2, §3, §4, §5, §6

in vivo = details: male, ICR, mouse, po, 30 mg/kg
Experimental: Male ICR mice, weighing 22-24 g, were fasted overnight and orally administered with 30 mg/kg of a solution of the compound of the present invention or the control compound [10% DMSO+60% PEG400+30% aqueous solution]. Blood was collected at 0.25, 0.5, 1.0, 2.0, 4.0, 6.0, 8.0, 12.0 and 24 h after administration of the compound of the present invention respectively, and the concentration of the compound of the present invention or the control compound in plasma was determined by LC/MS/MS.

Row | Compound | IC50 (AsPC-1; Homo sapiens, ASPC1, 168 h) [nM] | IC50 (GP2D; 168 h) [nM] | also measured
1 | C#Cc1c(F)ccc2cc(O)cc(-c3ncc4c(N5C[C@H]6CC[C@@H](C5)N6)nc(OC[C@@]56CCCN5C[C@@]5(CC5(F)F)C6)nc4c3F)c12 [Example 16B-1, 4-(4-((1R,5S)-3,8-diazabicyclo[3.2.1]octan-3-yl)-2-(((1S,7a'S)-2,2-difluorodihydro-1′H,3′H-spiro[cyclopropan-1,2′-pyrrolizin]-7a′(5′H)-yl)methoxy)-8-fluoropyridino[4,3-d]pyrimidin-7-yl)-5-ethynyl-6-fluoronaphthalen-2-ol] | 1.24 | 0.2 | IC50 (AGS): 1.37 nM
2 | N#Cc1c(N)sc2c(F)ccc(-c3ncc4c(N5CC6CCC(C5)N6)nc(OC[C@@]56CCCN5C[C@@]5(CC5(F)F)C6)nc4c3F)c12 [Example 24] | 62 | 2.5 | AUC(0-inf) (in vivo): 1270 ng·h/mL; AUC(0-t) (in vivo): 1250 ng·h/mL; Cmax (in vivo): 461 ng/mL; Tmax (in vivo): 0.5 h; half-life (in vivo): 4.74 h
3 | Cc1cc(N)c(F)c(-c2ncc3c(N4C[C@H]5CC[C@@H](C4)N5)nc(OC[C@@]45CCCN4C[C@@]4(CC4(F)F)C5)nc3c2F)c1C(F)(F)F [Example 26, 3-(4-((1R,5S)-3,8-diazabicyclo[3.2.1]octan-3-yl)-2-(((1S,7a'S)-2,2-difluorodihydro-1′H,3′H-spiro[cyclopropan-1,2′-pyrrolizin]-7a′(5′H)-yl)methoxy)-8-fluoropyridino[4,3-d]pyrimidin-7-yl)-2-fluoro-5-methyl-4-(trifluoromethyl)aniline] | – | – | AUC(0-inf) (in vivo): 3770 ng·h/mL; AUC(0-t) (in vivo): 3380 ng·h/mL; Cmax (in vivo): 462 ng/mL; Tmax (in vivo): 0.25 h; half-life (in vivo): 6.97 h
4 | Nc1cc(Cl)c(C(F)(F)F)c(-c2ncc3c(N4C[C@H]5CC[C@@H](C4)N5)nc(OC[C@@]45CCCN4C[C@@]4(CC4(F)F)C5)nc3c2F)c1F [Example 34, 3-(4-((1R,5S)-3,8-diazabicyclo[3.2.1]octan-3-yl)-2-(((1S,7a'S)-2,2-difluorodihydro-1′H,3′H-spiro[cyclopropan-1,2′-pyrrolizin]-7a′(5′H)-yl)methoxy)-8-fluoropyridino[4,3-d]pyrimidin-7-yl)-5-chloro-2-fluoro-4-(trifluoromethyl)aniline] | 11.1 | 1.03 | IC50 (AGS): 21.5 nM
5 | Nc1cc(Cl)c(C(F)(F)F)c(-c2ncc3c(N4C[C@H]5CC[C@@H](C4)N5)nc(OC[C@@]45CCCN4C[C@@]4(CC4(F)F)C5)nc3c2F)c1Cl [Example 35, 3-(4-((1R,5S)-3,8-diazabicyclo[3.2.1]octan-3-yl)-2-(((1S,7a′S)-2,2-difluorodihydro-1′H,3′H-spiro[cyclopropan-1,2′-pyrrolizin]-7a′(5′H)-yl)methoxy)-8-fluoropyridino[4,3-d]pyrimidin-7-yl)-2,5-dichloro-4-(trifluoromethyl)aniline] | 45.7 | 4.89 | IC50 (AGS): 79.7 nM
6 | Nc1cc(F)c(C(F)(F)F)c(-c2ncc3c(N4C[C@H]5CC[C@@H](C4)N5)nc(OC[C@@]45CCCN4C[C@@]4(CC4(F)F)C5)nc3c2F)c1 [Example 44, 3-(4-((1R,5S)-3,8-diazabicyclo[3.2.1]octan-3-yl)-2-(((1S,7a'S)-2,2-difluorodihydro-1′H,3′H-spiro[cyclopropan-1,2′-pyrrolizin]-7a′(5′H)-yl)methoxy)-8-fluoropyridino[4,3-d]pyrimidin-7-yl)-5-fluoro-4-(trifluoromethyl)aniline] | 23.3 | 1.6 | –
7 | Nc1cc(-c2ncc3c(N4C[C@H]5CC[C@@H](C4)N5)nc(OC[C@@]45CCCN4C[C@@]4(CC4(F)F)C5)nc3c2F)c(Cl)c(C(F)(F)F)c1 [Example 45, 3-(4-((1R,5S)-3,8-diazabicyclo[3.2.1]octan-3-yl)-2-(((1S,7a'S)-2,2-difluorodihydro-1′H,3′H-spiro[cyclopropan-1,2′-pyrrolizin]-7a′(5′H)-yl)methoxy)-8-fluoropyridino[4,3-d]pyrimidin-7-yl)-4-chloro-5-(trifluoromethyl)aniline] | 896 | 60 | –
8 | Nc1cc(Cl)c(F)c(-c2ncc3c(N4C[C@H]5CC[C@@H](C4)N5)nc(OC[C@@]45CCCN4C[C@@]4(CC4(F)F)C5)nc3c2F)c1 [Example 46, 3-(4-((1R,5S)-3,8-diazabicyclo[3.2.1]octan-3-yl)-2-(((1S,7a'S)-2,2-difluorodihydro-1′H,3′H-spiro[cyclopropan-1,2′-pyrrolizin]-7a′(5′H)-yl)methoxy)-8-fluoropyridino[4,3-d]pyrimidin-7-yl)-5-chloro-4-fluoroaniline] | > 1000 | > 100 | –
9 | Nc1cc(Cl)c(Cl)c(-c2ncc3c(N4C[C@H]5CC[C@@H](C4)N5)nc(OC[C@@]45CCCN4C[C@@]4(CC4(F)F)C5)nc3c2F)c1 [Example 47, 3-(4-((1R,5S)-3,8-diazabicyclo[3.2.1]octan-3-yl)-2-(((1S,7a'S)-2,2-difluorodihydro-1′H,3′H-spiro[cyclopropan-1,2′-pyrrolizin]-7a′(5′H)-yl)methoxy)-8-fluoropyridino[4,3-d]pyrimidin-7-yl)-4,5-dichloroaniline] | 62.3 | 4.54 | –
10 | N#Cc1cc(N)cc(-c2ncc3c(N4C[C@H]5CC[C@@H](C4)N5)nc(OC[C@@]45CCCN4C[C@@]4(CC4(F)F)C5)nc3c2F)c1Cl [Example 48, 3-(4-((1R,5S)-3,8-diazabicyclo[3.2.1]octan-3-yl)-2-(((1S,7a'S)-2,2-difluorodihydro-1′H,3′H-spiro[cyclopropan-1,2′-pyrrolizin]-7a′(5′H)-yl)methoxy)-8-fluoropyridino[4,3-d]pyrimidin-7-yl)-5-amino-2-chlorobenzonitrile] | 779 | 66 | –
11 | N#Cc1c(Cl)cc(N)cc1-c1ncc2c(N3C[C@H]4CC[C@@H](C3)N4)nc(OC[C@@]34CCCN3C[C@@]3(CC3(F)F)C4)nc2c1F [Example 49, 2-(4-((1R,5S)-3,8-diazabicyclo[3.2.1]octan-3-yl)-2-(((1S,7a'S)-2,2-difluorodihydro-1′H,3′H-spiro[cyclopropan-1,2′-pyrrolizin]-7a′(5′H)-yl)methoxy)-8-fluoropyridino[4,3-d]pyrimidin-7-yl)-4-amino-6-chlorobenzonitrile] | > 1000 | 24.4 | –
12 | N#Cc1c(-c2ncc3c(N4C[C@H]5CC[C@@H](C4)N5)nc(OC[C@@]45CCCN4C[C@@]4(CC4(F)F)C5)nc3c2F)cc(N)cc1C(F)(F)F [Example 50, 2-(4-((1R,5S)-3,8-diazabicyclo[3.2.1]octan-3-yl)-2-(((1S,7a'S)-2,2-difluorodihydro-1′H,3′H-spiro[cyclopropan-1,2′-pyrrolizin]-7a′(5′H)-yl)methoxy)-8-fluoropyridino[4,3-d]pyrimidin-7-yl)-4-amino-6-(trifluoromethyl)benzonitrile] | > 1000 | > 100 | –
13 | Nc1cnc(C(F)(F)F)c(-c2ncc3c(N4C[C@H]5CC[C@@H](C4)N5)nc(OC[C@@]45CCCN4C[C@@]4(CC4(F)F)C5)nc3c2F)c1 [Example 52, 5-(4-((1R,5S)-3,8-diazabicyclo[3.2.1]octan-3-yl)-2-(((1S,7a'S)-2,2-difluorodihydro-1′H,3′H-spiro[cyclopropan-1,2′-pyrrolizin]-7a′(5′H)-yl)methoxy)-8-fluoropyridino[4,3-d]pyrimidin-7-yl)-6-(trifluoromethyl)pyridin-3-amine] | > 1000 | > 100 | –
14 | Nc1cncc(-c2ncc3c(N4C[C@H]5CC[C@@H](C4)N5)nc(OC[C@@]45CCCN4C[C@@]4(CC4(F)F)C5)nc3c2F)c1C(F)(F)F [Example 53, 5-(4-((1R,5S)-3,8-diazabicyclo[3.2.1]octan-3-yl)-2-(((1S,7a'S)-2,2-difluorodihydro-1′H,3′H-spiro[cyclopropan-1,2′-pyrrolizin]-7a′(5′H)-yl)methoxy)-8-fluoropyridino[4,3-d]pyrimidin-7-yl)-4-(trifluoromethyl)pyridin-3-amine] | 896 | 60 | –
15 | Cc1nc(N)cc(-c2ncc3c(N4C[C@H]5CC[C@@H](C4)N5)nc(OC[C@@]45CCCN4C[C@@]4(CC4(F)F)C5)nc3c2F)c1C(F)(F)F [Example 55, 4-(4-((1R,5S)-3,8-diazabicyclo[3.2.1]octan-3-yl)-2-(((1S,7a'S)-2,2-difluorodihydro-1′H,3′H-spiro[cyclopropan-1,2′-pyrrolizin]-7a′(5′H)-yl)methoxy)-8-fluoropyridino[4,3-d]pyrimidin-7-yl)-6-methyl-5-(trifluoromethyl)pyridin-2-amine] | 56.7 | 6.5 | –
16 | (1S,7a'S)-7a′-(((4-(1R,5S)-3,8-diazabicyclo[3.2.1]octan-3-yl)-7-(8-ethynyl-7-fluoronaphthol-1-yl)-8-fluoropyridino[4,3-d]pyrimidin-2-yl)oxy)methyl)-2,2-difluorodihydro-1′H,3′H-spiro[cyclopropan-1,2′-pyrrolizin] [Example 21] | – | – | IC50 (AsPC-1): 19.1 nM; IC50 (GP2D): 4.92 nM
